Experimental findings from PubChem BioAssay AID564 (University of Pittsburgh Molecular Library Screening Center, 2006) are described below.

Active and inactive are the calls of the source. The rule behind the calls is not given here. Some results are limits rather than exact numbers.

For the assay, the target named is Dual specificity protein phosphatase 6 (Rattus norvegicus) (UniProt Q64346). Kind of assay: MKP-3 phosphatase inhibition with catalase present, dose response, biochemical, rat DUSP6, catalase added, probe assessment (AID 564). The note with it: recombinant MKP-3 phosphatase, fluorescence.
Chain of Dual specificity protein phosphatase 6 (Rattus norvegicus) (Q64346 whole entry, looked up): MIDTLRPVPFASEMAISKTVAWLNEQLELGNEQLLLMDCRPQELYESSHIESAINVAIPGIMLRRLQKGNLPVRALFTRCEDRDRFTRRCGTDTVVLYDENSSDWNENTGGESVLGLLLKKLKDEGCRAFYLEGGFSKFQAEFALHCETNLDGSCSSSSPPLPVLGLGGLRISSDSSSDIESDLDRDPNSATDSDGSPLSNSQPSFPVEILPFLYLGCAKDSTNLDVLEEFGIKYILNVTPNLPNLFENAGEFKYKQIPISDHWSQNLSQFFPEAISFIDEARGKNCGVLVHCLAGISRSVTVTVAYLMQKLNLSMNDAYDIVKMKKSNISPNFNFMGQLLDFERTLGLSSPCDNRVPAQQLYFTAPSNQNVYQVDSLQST

For orientation: IC50 means the concentration that inhibits the measured activity by half. For the compound `O=C1C(C2=C(O)c3ccccc3C2=O)=Nc2ccccc21`, the IC50 was > 50 µM (inactive).
